Source: patent publication US20240366555A1, “SELECTIVE MTORC2 INHIBITOR AND USES THEREOF” (ALIAD BIOPHARMA, priority 2021, published 2024)

How the values were obtained:
[1] = system: mTORC2 signaling (FHRE dependent gene expression); assay: FHRE-luciferase reporter analysis in A549; format: cell-based, human; details: A549 cells, treated for 24 hours; FIG. 7d
Text: mTORC2 activates SGK3, and SGK3 phosphorylates Fox03a, allowing Fox03a to remain in the cytoplasm. When mTORC2 is inhibited, Fox03a is dephosphorylated and translocated to the nucleus, and in the nucleus, it binds to FHRE located in a gene promoter to induce gene expression. Therefore, the change in the intracellular location of Fox03a and FHRE dependent gene expression become indicators for evaluating mTORC2 activity. In order to evaluate the effect of norathyriol on the mTORC2 activity, norathyriol was treated to A549, and then expression of an FHRE-synthetic luciferase gene was investigated by luciferase reporter analysis.
Specifically, A549 cells of 2×10^5 were seeded in a 35 mm culture dish and cultured for 1 day, and then a 2.5 μg FHRE-Luc plasmid and a 0.1 μg renilla luciferase plasmid were introduced by a transfection method using Lipofectamine LTX reagent (Thermofisher). After 18 hours, norathyriol was treated for 24 hours. Luciferase assay was performed with Dual Luciferase Reporter Assay System (Promega) according to the manufacturer's instructions.

[2] = molecular target: T1, mTORC1 (Homo sapiens, UniProt P42345); assay: In vitro mTORC1 kinase assay (GST-S6K Thr389 phosphorylation, immunoblot); format: biochemical
T1 construct: mTORC1 was isolated by co-immunoprecipitation using Flag antibody; made in house; host or cells: HEK 293T transfected with Flag-Raptor
Procedure: In order to investigate the effect on mTORC1 activity of norathyriol, in vitro mTORC1 kinase assay was performed. After introducing Flag-Raptor into a human cell line 293T, mTORC1 was isolated by co-immunoprecipitation using Flag antibody. In addition, the activity of the isolated mTORC1 complex was evaluated by measuring phosphorylation of GST-S6K Thr389, which is a selective substrate of mTORC1, by immunoblot analysis. In the control group in which Flag-Raptor was not introduced, GST-S6K Thr389 phosphorylation was almost not measured. […] Therefore, it was judged that GST-S6K Thr389 phosphorylation measured in the in vitro mTORC1 kinase assay was generated by mTORC1. In order to evaluate the inhibitory effect of norathyriol on mTORC1 activity, norathyriol was pretreated for 15 minutes, and then in vitro mTORC1 kinase assay was carried out.
More specifically, the HEK 293T cells were cultured in a DMEM culture medium in which 10% heat inactivated FBS+1× Glutamax was added. 8×10^5 HEK 293T cells were seeded in a 100 mm culture dish, and then they were cultured for 1 day. After mixing 42 μl Lipofectamine, 21 μl plus reagent, and 21 μg Flag-Raptor plasmid DNA to 1 ml OPTI-MEM, it was shaken at a room temperature for 25 minutes to prepare a transfection DNA mixture. The transfection DNA mixture was slowly treated on the cells drop by drop, and after culturing for 5 hours, the culture medium was replaced with a new culture medium. […] The protein concentration of the cell lysate was determined with BCA protein assay kit (Thermo Fisher Scientific). […] Thr389 phosphorylation of GST-S6K1, which is a substrate of mTORC1, was measured by performing immunoblot analysis using phospho Thr389 p70 S6 kinase antibody (#9205S, Cell Signaling) and GST antibody (#A190-122A, Bethyl Laboratories). […]

[3] = system: Pten KO mice; assay: Passive avoidance test in Pten KO mice; format: in vivo; details: FIG. 1b
Procedure: As Pten KO mice, Ptenf/f_cre/cre KO mice or Ptenf/f_cre/++ Het mice (KD) were obtained by mating Pten floxed/floxed mice and CAMKII-cre mice. DMSO or athyriol was intraperitoneally injected at 5 or 10 mg/kg for 2 weeks from the age of mice of 6 weeks, and a behavioral test was performed in 7 days after administration. Pten floxed/floxed mice were used as littermates of the same age as a normal control group.
A passive avoidance test was performed as described in Heo et al. (J. Ethnopharmacol. (2009) 122:20-27). After training the avoidance action by strong light three times a day, an electric foot shock (1 mA, 300 g test) was applied for 3 seconds in a dark room at the same time on the next day. After placing white mice in the same room in 24 hours after applying the shock, an avoidance response by light, that is, the time to move from a bright room to a dark room was measured, and it was dataficated for each group. Exactly after 24 hours of adaptation training, the mice were put back into the bright room and the latency time required to enter the dark room was measured for 720 seconds.

[4] = system: normal mice; assay: Y-type maze test in normal mice; format: in vivo; details: 5 mg/kg intraperitoneally, FIG. 14a
Procedure: A Y-maze was performed in a Y-shaped structure maze made of black acrylic material in which an angle of each arm was 120°, and a light and a cam were installed on the ceiling, and it was checked that white mice entered each arm while the surroundings were covered with a curtain. Through this, short-term memory was analyzed. In order to adapt mice to the environment, they were acclimated to the experimental space for 30 minutes. The mice were placed at one end of the maze and allowed to move freely for 12 minutes. Accuracy was measured by dividing time into 8 minutes, 10 minutes and 12 minutes. When the four paws of the mice entered the entrance, it was considered as completely entered. The percentage of accuracy was calculated as the number of times which a mouse entered each maze without repetition. […]
In order to verify this possibility, the efficacy of athyriol on memory ability and sociability of normal animals was investigated. A vehicle (30% DMSO) or athyriol was intraperitoneally injected at a dose of 5 mg/kg into normal mice (n=10), and from the 7th day after administration, the memory ability was evaluated by the same method as the Y-type maze test of Experimental example 1-2, and the sociability was evaluated by the same method as the 3 chamber test of Experimental example 1-6.

O=c1c2cc(O)c(O)cc2oc2cc(O)cc(O)c12 [norathyriol, 1,3,6,7-tetrahydroxy-9H-xanthen-9-one]
expression of the FHRE-synthetic luciferase gene [1]: increased by twice or more | GST-S6K Thr389 phosphorylation ([2]; 20 μM, 40 μM and 80 μM, FIG. 6c): not reduced at a significant level | IC50 ([2]; in vitro mTORC1 kinase assay): > 80 µM

COc1cc(O)c2c(=O)c3cc(O)c(O)cc3oc2c1 [athyriol, 1,6,7-Trihydroxy-3-methoxy-9H-xanthen-9-on]
memory ability in passive avoidance test ([3]; 5 mg/kg): rather more excellent than the control group | memory ability in passive avoidance test, level relative to control group ([3]; 10 mg/kg, % of the control group): 89% | improvement of memory ability in Y-type maze test compared to vehicle control [4]: ≥ 25%
